Assay: Inhibition of [3H]c[D-Pen2,p-Cl-Phe4,D-Pen5]enkephalin binding to delta opioid receptor of guinea pig brain plasma membrane homogenates

Compound | IC50 [nM]
CC[C@H](C)[C@H](NC(=O)[C@H](CCCNC(=N)N)NC(=O)[C@@H]1CCCCNC(=O)C[C@@H](NC(=O)[C@@H](N)Cc2ccc(O)cc2)C(=O)NCC(=O)N[C@@H](Cc2ccccc2)C(=O)N[C@@H](CC(C)C)C(=O)N1)C(=O)N[C@@H](CCCNC(=N)N)C(=O)N1CCC[C@H]1C(=O)N[C@@H](CCCCN)C(N)=O [Cyclic Lactam Peptide Analogues of Dynorphin A(1-11)-NH2] | 910
CC[C@H](C)[C@H](NC(=O)[C@H](CCCCN)NC(=O)[C@H](CCCNC(=N)N)NC(=O)[C@H](CC(C)C)NC(=O)[C@H](Cc1ccccc1)NC(=O)[C@@H](CC(=O)O)NC(=O)CNC(=O)[C@@H](N)Cc1ccc(O)cc1)C(=O)N[C@@H](CCCNC(=N)N)C(=O)N1CCC[C@H]1C(=O)N[C@@H](CCCCN)C(N)=O [Cyclic Lactam Peptide Analogues of Dynorphin A(1-11)-NH2] | 870
CC[C@H](C)[C@H](NC(=O)[C@H](CCCNC(=N)N)NC(=O)[C@@H]1CCCCNC(=O)C[C@H](NC(=O)[C@@H](N)Cc2ccc(O)cc2)C(=O)NCC(=O)N[C@@H](Cc2ccccc2)C(=O)N[C@@H](CC(C)C)C(=O)N1)C(=O)N[C@@H](CCCNC(=N)N)C(=O)N1CCC[C@H]1C(=O)N[C@@H](CCCCN)C(N)=O [Cyclic Lactam Peptide Analogues of Dynorphin A(1-11)-NH2Cyclic Lactam Peptide Analogues of Dynorphin A(1-11)-NH2] | 12

Reference: BindingDB's records for doi:10.1021/jm950369c (University of Arizona, 1996)
